Patent US20250228856A1, “USE OF HEMATOPOIETIC CELL KINASE (HCK) INHIBITOR IN PREPARATION OF DRUG FOR TREATING PULMONARY FIBROSIS” (Institute of Basic Medical Sciences, CAMS, priority 2024, published 2025)

Experiments:
Assay type in all cases: in vivo, C57BL/6J mice
IPF mice [1] = experiment: HYP content and degree of lesions in lung tissue of IPF mice; conditions: BLM IPF mice, 30 mg/kg i.p., 3 weeks
Experimental: (§1) Male C57BL/6J mice (aged 8 weeks and weighing 25-30 g) were selected and housed in an SPF grade laboratory animal room, and the model of IPF was constructed by one-time intratracheal instillation of bleomycin (BLM); the mice were divided into four groups (n=9): • 1) PBS group+vehicle group: PBS (the volume consistent with the subsequent BLM infusion volume) was given by tracheal instillation; RK-20449 solvent PBS was injected intraperitoneally; • 2) PBS+RK-20449 group: intratracheal instillation of PBS (volume consistent with subsequent BLM infusion volume); intraperitoneal injection of RK-20449 (30 mg/kg, once a day, 6 d a week, for 3 weeks); • 3) BLM+vehicle group: BLM solution (2 U/kg) was given tracheal infusion; RK-20449 solvent PBS was injected intraperitoneally; and • 4) BLM+RK-20449 group: BLM solution (2 U/kg) was given tracheal infusion, and RK-20449 (30 mg/kg, once a day, 6 d a week, for 3 weeks) was injected intraperitoneally.
(§2) All mice were sacrificed after 21 d of administration, and the corresponding samples were collected for detection.
30 mg of mouse lung tissue was detected using an HYP kit (NBP2-59747, Novus Biologicals, Littleton, CO, USA).

Hck = Hck transcription level in lung tissue of IPF mice (qPCR); conditions: BLM (2 U/kg) IPF mice; RK-20449 30 mg/kg i.p. once a day, 6 d a week, 3 weeks; FIG. 1
Experimental: as §1, §2
(§3) Lung tissue RNA of all mice was extracted; cDNA was obtained by using a reverse transcription kit (KR103, Tiangen Biotechnology, Beijing, China); qPCR was conducted by using a SYBR Green I Q-PCR Kit (TransGen Biotech, Beijing China); data collection and analysis were conducted by Bio-Rad IQ5 system.

IPF mice [2] = experiment: Body weight and survival rate of IPF mice; conditions: BLM IPF mice, 30 mg/kg i.p., 3 weeks
Experimental: as §1, §2
The mice in each group were weighed, and the death of the mice was observed and counted.

IPF mice [3] = experiment: Pulmonary function test in IPF mice; conditions: BLM IPF mice, 30 mg/kg i.p., 3 weeks
Experimental: as §1, §2
Anesthetized mice were fixed on an experimental table, and mouse lung function was detected by a pulmonary function testing system (DSI Buxco, USA). Before experiment, the mouse was anesthetized by intraperitoneal injection of 0.4 mL/100 g 2% pentobarbital, tracheotomy was performed, a trachea cannula was inserted, and a ventilator was connected. Next, FRC, PV, FV, and RC were automatically tested by a PET system. Indicators closely related to lung function changes in pulmonary fibrosis for statistical analysis, including lung volume indicators such as IC, and pulmonary ventilation function tests such as RI, Cdyn, and Cchord.

IPF mice [4] = experiment: Transcription levels of fibrosis factors in lung tissue of IPF mice (qPCR); conditions: BLM IPF mice, 30 mg/kg i.p., 3 weeks
Experimental: as §1, §2, §3

IPF mice [5] = experiment: Transcription levels of inflammatory factors in lung tissue of IPF mice (qPCR); conditions: BLM IPF mice, 30 mg/kg i.p., 3 weeks
Experimental: as §1, §2, §3

IPF mice [6] = experiment: ELISA of inflammatory factors in BALF of IPF mice; conditions: BLM IPF mice, 30 mg/kg i.p., 3 weeks
Experimental: as §1, §2
Concentrations of inflammatory factors IL-1β and IL-6 in mouse BALF were detected by using ELISA kits.

CN1CCN(C2CCC(n3cc(-c4ccc(Oc5ccccc5)cc4)c4c(N)ncnc43)CC2)CC1 (stereo not shown) [RK-20449]
degree of lesions (IPF mice [1]): alleviated
hydroxyproline content in lung tissue (IPF mice [1]; lung tissue, FIG. 4C): decreased
transcription level of Hck in the lung tissue (Hck): effectively inhibit
weight loss of IPF mice (IPF mice [2]; FIG. 2A): alleviated
survival rate (IPF mice [2]; FIG. 2B): increased to a certain extent
lung function: inspiratory resistance (RI) (IPF mice [3]; FIG. 2C): improved significantly
lung function: dynamic compliance (Cdyn) (IPF mice [3]; FIG. 2D): improved significantly
lung function: quasi-static compliance (Cchord) (IPF mice [3]; FIG. 2E): improved significantly
lung function: inspiratory capacity (IC) (IPF mice [3]; FIG. 2F): improved significantly
transcription level of Col-I (IPF mice [4]; FIG. 4A): decreased
transcription level of Fn-1 (IPF mice [4]; FIG. 4B): decreased
transcription level of Il-1β (IPF mice [5]; FIG. 3A): decreased
transcription level of Il-6 (IPF mice [5]; FIG. 3B): decreased
transcription level of Tnf-α (IPF mice [5]; FIG. 3C): decreased
concentration of IL-1β in the alveolar lavage fluid (IPF mice [6]; FIG. 3D): decreased
concentration of IL-6 in the alveolar lavage fluid (IPF mice [6]; FIG. 3E): decreased
